Earlier results on one compound are cited in patent US20090226465A1, “MACROCYCLIC DEPSIPEPTIDE ANTIBODY-DRUG CONJUGATES AND METHODS” (priority 2005, published 2009).

*1 amine or outer side, *2 acyl side, *3 side chain or, on linkers, in order; H or OH if unused. Where a SMILES comes first, the peptide text is derived from it. Bridges are numbered along the chain shown (N, C = ends). [ ]: non-standard residue; d: D form. The star is where a group is joined. X1 = CC[C@H](C)[C@@H](N[*:1])[C@@H](O)CC(=O)O[C@H](C(=O)[C@H](C)C(=O)[*:2])C(C)C; NMeY = CN[C@@H](Cc1ccc(O)cc1)C(=O)O; dNMeL = CN[C@H](CC(C)C)C(=O)O; Pyruvoyl = CC(=O)C(=O)*

Series [1] concerns panel of solid tumor cell lines. To be noted: read-out: in vitro IC50.

The term IC50 denotes the midpoint of a concentration-inhibition curve. Take `CC[C@H](C)[C@H]1NC(=O)[C@@H](NC(=O)[C@@H](CC(C)C)N(C)C(=O)[C@@H]2CCCN2C(=O)C(C)=O)[C@@H](C)OC(=O)[C@H](Cc2ccc(OC)cc2)N(C)C(=O)[C@@H]2CCCN2C(=O)[C@H](CC(C)C)NC(=O)[C@@H](C)C(=O)[C@H](C(C)C)OC(=O)C[C@@H]1O` [Aplidin] (Pyruvoyl-P[dNMeL]T[X1]LP[NMeY](Me); ester 3-C): the “half life in plasma” value is 4 to 7 h. Also, in series [1], the IC50 was 1 to 100 nM.
